Assay results reported in US20240165209A1, “PLACENTAL ALKALINE PHOSPHATASE FOR REDUCING THE LOSS OF RED BLOOD CELLS, WHITE BLOOD CELLS, AND PLATELETS IN CHEMOTHERAPY TREATED CANCER PATIENTS” (ZOLTAN LABORATORIES, LLC, priority 2021, published 2024).

How the values were obtained:
bone marrow MSCs = assay: DNA synthesis ([3H]thymidine incorporation) in MSCs; type: cell-based, human; conditions: 20 hours, no PLAP
Description: For the experiment, bone marrow aspirates were taken from normal human adult donors after informed consent. For the preparation of bone marrow MSCs, essentially a widely used technique was used as described earlier by others [Pittenger, M. F., Mackay, A. M., Beck, S. C., et al. (1999) Multilineage potential of adult human mesenchymal stem cells. Science 284, 143-147]. Briefly, nucleated cells were isolated with a pre-prepared commercial density gradient (Lymphoprep, Nycomed, Pharma, Oslo, Norway) and re-suspended in Dulbecco's modified Eagle's medium (DMEM) (GIBCO, Grand Island, NY) supplemented with 10% fetal calf serum (FCS), 50 U/ml of penicillin, and 50 μg/ml of streptomycin (GIBCO). All nucleated cells were plated in 25-cm^2 flasks (BD Falcon, Bedford, MA) at 37° C. in humidified atmosphere containing 5% CO2. After 24 hours, non-adherent cells were removed and cryopreserved in liquid nitrogen until use. The remaining adherent cells were thoroughly washed with Hanks balanced salt solution (HBSS) (GIBCO). Fresh complete culture medium was added and replaced every 3 or 4 days (twice a week). When cells grew to about 80% confluence, they were suspended and harvested by incubating with a ready-made solution containing 0.25% trypsin and 1 mM EDTA (Sigma-Aldrich, St. Louis, MO) for 5 minutes at 37° C.; this cell suspension is designated as passage 1. These cells were further expanded with 1:3-1:5 splitting in 175-cm^2 flasks (BD Falcon). For the determination of DNA synthesis, cells were divided into 12-well plates in the complete medium and let the cells grow to about 60% confluence. After changing the spent medium for fresh complete medium (i.e., containing 10% fetal calf serum), cells were treated for 20 hours with 20-100 μM ATP and/or 200 nM PLAP as well as 50-200 μM Cyp in the absence or presence of 200 nM PLAP. For labeling newly formed DNA, cells received 1,130,000 d.p.m. [^3H] thymidine for the last 4 hours of the treatment period. DNA synthesis was determined as described earlier [She, Q.-B., Mukherjee, J. J., Huang, J.-S., Crilly, K. S. and Kiss, Z. (2000) Growth factor-like effects of placental alkaline phosphatase in human fetus and mouse embryo fibroblasts. FEBS Lett. 469, 163-167]. The data is expressed as d.p.m. [^3H] thymidine incorporated into DNA/well (n=3).

[1] = tested on: mouse bone marrow-derived hematopoietic stem cells (HSCs); conditions: 200 μM Cyp, 3 days, absence of PLAP
Experimental: Bone marrow was harvested by flushing bones from female C57/BL/6 mice in Fischer medium (Thermo Fisher Scientific; catalogue no. 21475025) containing 20% horse serum (Hyclone, Logan, UT), 100 Unit/ml penicillin, […] streptomycin (Gibco, BRL), 0.015 fungizone (Gibco, BRL), and 0.1 μM hydrocortisone sodium succinate (SynoPharm; Hamburg, Germany). Pooled stem cells were seeded into 25 cm 3 flasks (10 ml cell suspension) and after 3 days of incubation at 33° C. in 5% CO2 in air in the absence of PLAP, they were plated into 12-well plates and were incubated in the absence (n=8) or presence of 50 μg/ml PLAP (n=8) for additional 3 days.
In a follow up experiment with hematopoietic stem cells, the same incubation medium in 12-well plates contained either no other addition (n=8) or contained 200 μM Cyp without (n=8) or with 50 μg/ml PLAP (n=8) for 3 days.

[2] = tested on: blood cells (RBCs, WBCs, platelets) of T47D tumor bearing mice; assay: Experiment 2: blood cell counts in Cyp-treated T47D tumor bearing mice, last sample day 10; type: in vivo, mouse; conditions: Cyp 120 mg/kg, PLAP 7.5 mg/kg days 0, 2, 4, 6
Experimental: In the two experiments performed, first-generation hybrid BDF1 (C57BL/6 female×DBA/2 male) 10 weeks old adult female mice bearing T47D tumors (2.6-3.3 cm 3 volume) were used.
The second experiment was performed with T47D tumor bearing mice similarly to the one described to TABLE 2, except that one group of Cyp (120 mg/kg) treated mice were co-treated treated with PLAP (7.5 mg/kg) on days 0, 2, 4, and 6. […] The data shown is the average of 6 independent determinations±S.D.

[3] = tested on: granulocyte-macrophage colony-forming units (CFU-GM); assay: Granulocyte-macrophage colony-forming units (CFU-GM), semisolid colony-forming cell assay, Cyp treated T47D tumor bearing mice; type: in vivo, mouse; conditions: for CFU-GM/10^5 nucleated BM cells: Cyp 120 mg/kg i.p. daily x6, PLAP 7.5 mg/kg s.c. days 0, 2, 4, 6; for CFU-GM per femur: calculated: nucleated cells in the femur x CFU-GM
Experimental: Again, first-generation hybrid BDF1 (C57BL/6 female×DBA/2 male) 10 weeks old adult female mice bearing T47D tumors (2.6-3.3 cm^3) were used. In the first group, mice received no treatment. In the second and third groups, mice were administered 120 mg/kg of Cyp intraperitoneally once a day for 6 consecutive days. In a third group, mice were also administered 7.5 mg/kg of PALP subcutaneously on days 0, 2, 4 and 6. On the days indicated in TABLE 4, the animals were killed, then the bone marrow was flushed from the femurs with Iscove's modified Dulbecco's medium (Gibco BRL, Gaithersburg, MD, USA). This was followed by standard erythrocyte lysis and then by counting the number of nucleated bone marrow (BM) cells per femur using a hemocytometer.
To measure the formation of the granulocyte-macrophage colony-forming units (CFU-GM), a semisolid colony-forming cell assay was used. Equal numbers of nucleated bone marrow cells (isolated on days as indicated above) were plated in 35-mm Petri dishes (Costar, Cambridge, MA, USA) in Iscove's modified Dulbecco's medium supplemented with 1% methylcellulose, 30% horse serum (Gibco), 10% WEHI-3B conditioned medium as a source of growth factors, 4 mM L-glutamine, 0.25 mM α-thioglycerol (Gibco), 1% deionized bovine serum albumin (Sigma), and antibiotics (Gibco). Cells were cultured at 37° C. in 5% CO2/95% air atmosphere. CFU-GM was counted on day 9. Three parallel plates were used for each 3 animals (9 plates for one number). Colonies containing at least 50 cells were counted which is a generally accepted value in the literature. In TABLE 4, “CFU-GM per femur” is a calculated value derived from multiplying the number of nucleated cells in the femur with the number of CFU-GM; this number gives the number of CFU-GM in one femur. Each value is expressed as the mean±standard deviation of 9 plates (derived from 3 animals).

Q: Which results are given for `O.O=P1(N(CCCl)CCCl)NCCCO1` (centres unmarked) [Cyp, 2-[Bis (2-chloroethyl)amino] tetrahydro-2H-1,3,2-oxazaphosphorine 2-oxide monohydrate]?
A: d.p.m. [^3H] thymidine incorporated into DNA/well (bone marrow MSCs; Cyp 50 μM): 51,684 ± 2.772 d.p.m.; d.p.m. [^3H] thymidine incorporated into DNA/well (bone marrow MSCs; Cyp 200 μM): 32,536 ± 3,280 d.p.m.; decrease of the number of cells by Cyp [1]: 52%; Platelets ([2]; day 0): 1,185 ± 101^ ×10^−3/μl; RBCs ([2]; day 0): 9.51 ± 0.70 ×10^−6/μl; WBCs ([2]; day 0): 8.86 ± 0.61 ×10^−3/μl; Platelets ([2]; day 6): 372 ± 57 ×10^−3/μl; RBCs ([2]; day 6): 4.83 ± 0.62 ×10^−6/μl; WBCs ([2]; day 6): 2.79 ± 0.47 ×10^−3/μl; Platelets ([2]; day 10): 746 ± 92 ×10^−3/μl; RBCs ([2]; day 10): 6.88 ± 0.61 ×10^−6/μl; WBCs ([2]; day 10): 6.15 ± 0.45 ×10^−3/μl; CFU-GM/10^5 nucleated BM cells ([3]; BM isolated day 0): 78.1 ± 6.1; CFU-GM/10^5 nucleated BM cells ([3]; BM isolated day 3): 34.5 ± 7.2; CFU-GM/10^5 nucleated BM cells ([3]; BM isolated day 6): 25.8 ± 4.4; CFU-GM/10^5 nucleated BM cells ([3]; BM isolated day 9): 98.5 ± 8.0; CFU-GM per femur ([3]; day 0): 1,101; CFU-GM per femur ([3]; day 3): 321; CFU-GM per femur ([3]; day 6): 80; CFU-GM per femur ([3]; day 9): 482
